IC50 data for 19 molecules are collected here from US11976083B2, “Inhibitors of peptidylarginine deiminases” (Gilead Sciences, Inc., priority 2020, dated 2024).

SMILES strings stand for the structures.

This experiment deals with T1, human PAD4 (Homo sapiens, UniProt Q9UM07).
T1 construct: human PAD4 (NM_012387), A2-P663, was PCR amplified; His-SUMO (N, cleaved yes); made in house; host or cells: E. coli BL21(DE3)
T1 sequence (Q9UM07 2-663): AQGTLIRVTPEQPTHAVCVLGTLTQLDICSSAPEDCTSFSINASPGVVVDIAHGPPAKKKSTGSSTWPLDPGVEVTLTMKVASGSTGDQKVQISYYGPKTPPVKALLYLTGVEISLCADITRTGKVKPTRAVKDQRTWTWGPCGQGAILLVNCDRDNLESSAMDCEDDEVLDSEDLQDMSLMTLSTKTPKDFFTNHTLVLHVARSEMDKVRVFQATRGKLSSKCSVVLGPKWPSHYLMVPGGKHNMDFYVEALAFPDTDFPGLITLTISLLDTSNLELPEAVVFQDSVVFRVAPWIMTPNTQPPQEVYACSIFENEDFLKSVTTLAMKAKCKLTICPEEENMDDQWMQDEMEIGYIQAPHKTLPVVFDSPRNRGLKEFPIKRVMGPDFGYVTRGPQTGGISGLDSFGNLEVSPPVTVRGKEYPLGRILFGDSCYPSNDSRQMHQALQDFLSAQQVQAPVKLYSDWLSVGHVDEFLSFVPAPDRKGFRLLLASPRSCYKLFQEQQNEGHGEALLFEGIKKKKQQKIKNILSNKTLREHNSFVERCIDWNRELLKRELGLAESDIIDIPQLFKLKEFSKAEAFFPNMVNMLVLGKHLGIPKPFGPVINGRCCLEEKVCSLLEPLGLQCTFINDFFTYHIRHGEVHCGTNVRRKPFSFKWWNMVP
In words: In vitro PAD4 BAEE biochemical assay. Particulars: BAEE substrate 3 mM, 5 nM PAD4, 2 mM calcium chloride; geometric mean of multiple experiments. The method, boiled down: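 PAD4 5 nM, CaCl2 2 mM, BAEE 3 mM final; 50 mM MOPS pH 7.6, 50 mM NaCl, 0.05% Tween-20, 2 mM DTT. Cpd + enzyme 30 min 25 °C; substrate 2 h 25 °C; EDTA stop; OPA detection 1 h. IC50 4-parameter fit.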
As for `COc1cc(C(=O)N2CCC[C@@H](N)C2)cc2nc(-c3cc4ccc5nc4n3C[C@@H]3C[C@H]3C(OC)CCCC(=O)N[C@@H]5C)n(C)c12` (stereo partly shown) [Example 264, (3~{R},5~{R},12~{R})-18-[5-[(3~{R})-3-aminopiperidine-1-carbonyl]-7-methoxy-1-methyl-benzimidazol-2-yl]-6-methoxy-12-methyl-1,11,20-triazatetracyclo[11.5.2.0^{3,5}.0^{16,19}] icosa-13(20),14,16(19),17-tetraen-10-one], the IC50 was determined as 91 nM.

Consider `COc1cc(C(=O)N2CCC[C@@H](N)C2)cc2nc(-c3cc4ccc5nc4n3C[C@@H]3C[C@H]3COC[C@@H](C)C(=O)N[C@@H]5C)n(C)c12` [Example 265, (5~{R},9~{R},12~{R})-18-[5-[(3~{R})-3-aminopiperidine-1-carbonyl]-7-methoxy-1-methyl-benzimidazol-2-yl]-9,12-dimethyl-7-oxa-1,11,20-triazatetracyclo[11.5.2.0^{3,5}.0^{16,19}] icosa-13(20),14,16(19),17-tetraen-10-one], for which the IC50 is 81 nM.

As to `COc1cc(C(=O)N2CCC[C@@H](N)C2)cc2nc(-c3cc4ccc5nc4n3C[C@@H]3C[C@H]3COC[C@H](C)C(=O)N[C@@H]5C)n(C)c12` [Example 266, (5~{R},9~{S},12~{R})-18-[5-[(3~{R})-3-aminopiperidine-1-carbonyl]-7-methoxy-1-methyl-benzimidazol-2-yl]-9,12-dimethyl-7-oxa-1,11,20-triazatetracyclo[11.5.2.0^{3,5}.0^{16,19}] icosa-13(20),14,16(19),17-tetraen-10-one], the concentration for half-maximal inhibition (IC50) stood at 153 nM.

Consider `COc1cc(C(=O)N2CCC[C@@H](N)C2)cc2nc(-c3cc4ccc5nc4n3C[C@@H]3C[C@H]3CO[C@@H](C)CC(=O)N[C@@H]5C)n(C)c12` [Example 267, (5~{R},8~{S},12~{R})-18-[5-[(3~{R})-3-aminopiperidine-1-carbonyl]-7-methoxy-1-methyl-benzimidazol-2-yl]-8,12-dimethyl-7-oxa-1,11,20-triazatetracyclo[11.5.2.0^{3,5}.0^{16,19}] icosa-13(20),14,16(19),17-tetraen-10-one], for which the half-maximal inhibitory concentration (IC50) was 88 nM.

On to `COc1cc(C(=O)N2CCC[C@@H](N)C2)cc2nc(-c3cc4ccc5nc4n3C[C@@H]3C[C@H]3CO[C@H](C)CC(=O)N[C@@H]5C)n(C)c12` [Example 268, (5~{R},8~{R},12~{R})-18-[5-[(3~{R})-3-aminopiperidine-1-carbonyl]-7-methoxy-1-methyl-benzimidazol-2-yl]-8,12-dimethyl-7-oxa-1,11,20-triazatetracyclo[11.5.2.0^{3,5}.0^{16,19}] icosa-13(20),14,16(19),17-tetraen-10-one], for which the IC50 stood at 137 nM.

With `COc1cc(C(=O)N2CCC[C@@H](N)C2)cc2nc(-c3cc4ccc5nc4n3C[C@@H]3C[C@H]3CCCCC(=O)N[C@@H]5C)n(C)c12` [Example 269, (3~{R},5~{R},12~{R})-18-[5-[(3~{R})-3-aminopiperidine-1-carbonyl]-7-methoxy-1-methyl-benzimidazol-2-yl]-12-methyl-1,11,20-triazatetracyclo[11.5.2.0^{3,5}.0^{16,19}] icosa-13(20),14,16(19),17-tetraen-10-one], the IC50 stood at 36 nM.

With `COc1cc(C(=O)N2CCC[C@@H](N)C2)cc2nc(-c3cc4ccc5nc4n3C[C@@H]3C[C@H]3C(OC)CCCC(=O)N[C@@H]5C)n(C)c12` (stereo partly shown) [Example 270, (3~{R},5~{R},12~{R})-18-[5-[(3~{R})-3-aminopiperidine-1-carbonyl]-7-methoxy-1-methyl-benzimidazol-2-yl]-6-methoxy-12-methyl-1,11,20-triazatetracyclo[11.5.2.0^{3,5}.0^{16,19}] icosa-13(20),14,16(19),17-tetraen-10-one], the half-inhibitory concentration (IC50) worked out at 90 nM.

Take `COc1cc(C(=O)N2CCC[C@@H](N)C2)cc2nc(-c3cc4ccc5nc4n3C[C@H]3C[C@@H]3COC(C)CC(=O)N[C@@H]5C)n(C)c12` (stereo partly shown) [Example 271, (3~{S},5~{S},12~{R})-18-[5-[(3~{R})-3-aminopiperidine-1-carbonyl]-7-methoxy-1-methyl-benzimidazol-2-yl]-8,12-dimethyl-7-oxa-1,11,20-triazatetracyclo[11.5.2.0^{3,5}.0^{16,19}] icosa-13(20),14,16(19),17-tetraen-10-one]: the IC50 is 65 nM.

For the molecule `COc1cc(C(=O)N2CCC[C@@H](N)C2)cc2nc(-c3cc4ccc5nc4n3C[C@@H]3C[C@H]3CCCC(C)C(=O)N[C@@H]5C)n(C)c12` (stereo partly shown) [Example 272, (3~{R},5~{R},12~{R})-18-[5-[(3~{R})-3-aminopiperidine-1-carbonyl]-7-methoxy-1-methyl-benzimidazol-2-yl]-9,12-dimethyl-1,11,20-triazatetracyclo[11.5.2.0^{3,5}.0^{16,19}] icosa-13(20),14,16(19),17-tetraen-10-one], the half-inhibitory concentration (IC50) worked out at 69 nM.

Take `COc1cc(C(=O)N2CCC[C@@H](N)C2)cc2nc(-c3cc4ccc5cc4n3CCC/C=C/CC(C)(C)C(=O)N[C@@H]5C)n(C)c12` [Example 273, (5˜{E},11˜{R})-17-[5-[(3˜{R})-3-aminopiperidine-1-carbonyl]-7-methoxy-1-methyl-benzimidazol-2-yl]-8,8,11-trimethyl-1,10-diazatricyclo[10.5.2.0^{15,18}]nonadeca-5,12(19),13,15(18),16-pentaen-9-one]: the IC50 came out at 68 nM.

For the molecule `COc1cc(C(=O)N2CCC[C@@H](N)C2)cc2nc(-c3cc4ccc5nc4n3C[C@@H]3C[C@H]3CCCC(C)(C)C(=O)N[C@@H]5C)n(C)c12` [Example 274, (3˜{R},5˜{R},12˜{R})-18-[5-[(3˜{R})-3-aminopiperidine-1-carbonyl]-7-methoxy-1-methyl-benzimidazol-2-yl]-9,9,12-trimethyl-1,11,20-triazatetracyclo[11.5.2.0^{3,5}.0^{16,19}]icosa-13(20),14,16(19),17-tetraen-10-one], the IC50 came to 104 nM.

On to `COc1cc(C(=O)N2CC[C@@H](F)[C@@H](N)C2)cc2nc(-c3cc4ccc5nc4n3CCCCCCC(C)(C)C(=O)N[C@@H]5C)n(C)c12` [Example 276, (11~{R})-17-[5-[(3~{S},4~{R})-3-amino-4-fluoro-piperidine-1-carbonyl]-7-methoxy-1-methyl-benzimidazol-2-yl]-8,8,11-trimethyl-1,10,19-triazatricyclo[10.5.2.0^{15,18}]nonadeca-12(19),13,15(18),16-tetraen-9-one], for which the concentration for half-maximal inhibition (IC50) was 343 nM.

`COc1cc(C(=O)N2[C@H]3CC[C@@H]2[C@H](N)C3)cc2nc(-c3cc4ccc5nc4n3CCCCCCC3(CCC3)C(=O)N[C@@H]5C)n(C)c12` [Example 278, (11~{R})-17-[5-[(1~{R},2~{R},4~{S})-2-amino-7-azabicyclo[2.2.1]heptane-7-carbonyl]-7-methoxy-1-methyl-benzimidazol-2-yl]-11-methyl-spiro[1,10,19-triazatricyclo[10.5.2.0^{15,18}]nonadeca-12(19),13,15(18),16-tetraene-8,1′-cyclobutane]-9-one]: the IC50 amounted to 47 nM.

Take `COc1cc(C(=O)N2[C@H]3CC[C@@H]2[C@H](N)C3)cc2nc(-c3cc4ccc5nc4n3CCCCCCC3(CC3)C(=O)N[C@@H]5C)n(C)c12` [Example 279, (11~{R})-17-[5-[(1~{R},2~{R},4~{S})-2-amino-7-azabicyclo[2.2.1]heptane-7-carbonyl]-7-methoxy-1-methyl-benzimidazol-2-yl]-11-methyl-spiro[1,10,19-triazatricyclo[10.5.2.0^{15,18}]nonadeca-12(19),13,15(18),16-tetraene-8,1′-cyclopropane]-9-one]: the IC50 was 82 nM.

In the case of `COc1cc(C(=O)N2[C@H]3CC[C@@H]2[C@H](N)C3)cc2nc(-c3cc4ccc5nc4n3CCCCCCCC3(CCC3)C(=O)N[C@@H]5C)n(C)c12` [Example 280], the IC50 turned out to be 64 nM.

On to `COc1cc(C(=O)N2[C@H]3CC[C@@H]2[C@H](N)C3)cc2nc(-c3cc4ccc5nc4n3CCCCCCCC3(CC3)C(=O)N[C@@H]5C)n(C)c12` [Example 281, (12~{R})-18-[5-[(1~{R},2~{R},4~{S})-2-amino-7-azabicyclo[2.2.1]heptane-7-carbonyl]-7-methoxy-1-methyl-benzimidazol-2-yl]-12-methyl-spiro[1,11,20-triazatricyclo[11.5.2.0^{16,19}]icosa-13(20),14,16(19),17-tetraene-9,1′-cyclopropane]-10-one], for which the IC50 is 88 nM.

On to `COc1cc(C(=O)N2CCC[C@@H](N)C2)cc2nc(-c3cc4ccc5nc4n3CCCCCCCC(=O)N[C@@H]5C)n(C)c12` [Example 282, (11~{R})-17-[5-[(3~{R})-3-aminopiperidine-1-carbonyl]-7-methoxy-1-methyl-benzimidazol-2-yl]-11-methyl-1,10,19-triazatricyclo[10.5.2.0^{15,18}]nonadeca-12(19),13,15(18),16-tetraen-9-one], for which the half-inhibitory concentration (IC50) came out at 13 nM.

On to `COc1cc(C(=O)N2CCC[C@@H](N)C2)cc2nc(-c3cc4ccc5nc4n3CCCCCCCCC(=O)N[C@@H]5C)n(C)c12` [Example 283, (12~{R})-18-[5-[(3~{R})-3-aminopiperidine-1-carbonyl]-7-methoxy-1-methyl-benzimidazol-2-yl]-12-methyl-1,11,20-triazatricyclo[11.5.2.0^{16,19}]icosa-13(20),14,16(19),17-tetraen-10-one], for which the half-maximal inhibitory concentration (IC50) worked out at 13 nM.

For `COc1cc(C(=O)N2CCC[C@@H](N)C2)cc2nc(-c3cc4ccc5nc4n3CCCCCCCCCC(=O)N[C@@H]5C)c(C)n12` [Example 284, (13~{R})-19-[7-[(3~{R})-3-aminopiperidine-1-carbonyl]-5-methoxy-3-methyl-imidazo[1,2-a]pyridin-2-yl]-13-methyl-1,12,21-triazatricyclo[12.5.2.0^{17,20}]henicosa-14(21),15,17(20),18-tetraen-11-one], the concentration for half-maximal inhibition (IC50) came out at 52 nM.
